The conditions of data set [1]: cited from earlier work; for mutagenic potential: psychoactive phenethylamines; for mutagenic capacity in terms of increasing the frequency of MNi: synthetic cannabinoids, first study of 2020.
Data set [2] deals with TK6 cells. Description: Cytostasis analysis (Relative Population Doubling). It counts as cell-based, human. As to conditions: 26 h; for Relative Population Doubling (RPD): mean ± SEM; for Cytostatic effect / RPD versus OECD threshold (55 ± 5%): all concentrations up to 100 µM. The procedure: In parallel, always using the Guava ViaCount Reagent, the number of cells seeded at time 0 and the one measured at the end of the treatment time were used to check the correct replication and to calculate the Population Doublings (PD) values. Subsequently, the PD obtained in the control cultures was compared to that measured in the treated cultures obtaining the Relative Population Doublings (RPD). PD and RPD were calculated with the following formulas:(1) PD=logpost−initial cell number/initial cell number÷log2 (2) RPD=PD in treated cultures/PD in control cutures x 100
Similarly, to cytotoxicity, the cytostasis was checked, in order to verify that cell proliferation respected the threshold established by OECD guideline (55 ± 5%).

Data set [3] deals with TK6 cells. The data set is described as follows: Apoptosis analysis (Guava Nexin assay). As to conditions: 26 h, all selected concentrations. The format is cell-based, human. How it is done: The percentage of apoptotic cells was evaluated by the Guava Nexin Assay according to the procedure by Lenzi et al. and Cocchi et al..
The reagent contains the 7-aminoactinomycin D (7- AAD), a cells non-permeant dye that allows the discrimination between live and dead cells, and the Annexin-V-PE that allows the identification of apoptotic cells by binding to the phosphatidylserine on the cell surface.
100 μL of reagent was added to 100 μL of cell suspension (~1 × 10^5 cells) and incubated for 20 min at RT. Then, a total of 2000 events were acquired and analyzed by Guava Nexin software.
The apoptotic cell percentages recorded in the cultures treated with synthetic cathinones different concentrations were normalized on those recorded in the untreated control cultures, accounted equal to 1 and expressed as apoptotic fold increase.

For data set [4], the system named is TK6 cells. Description: In vitro micronucleus test by flow cytometry, without S9 mix. The format is cell-based, human. As to conditions: 26 h, 75 and 100 µM. How it is done: (§1) The analysis of the MNi frequency was performed using an automated protocol published by Lenzi et al..
(§2) A total of 10,000 nuclei, derived from viable and proliferating cells, and the corresponding number of MNi were acquired and analyzed by Guava Incyte software. The discrimination between nuclei and MNi occurs on the basis of the different size and intensity of green fluorescence.
(§3) The MNi frequency (number of MNi/10,000 nuclei) recorded in treated cultures were normalized on those recorded in the concurrent negative control cultures, accounted equal to 1 and expressed as MNi frequency fold increase.
(§4) We used the clastogen MMC and the aneuploidogen VINB as positive controls in absence of S9 mix, while CP, a clastogen agent requiring metabolic activation, in presence of S9 mix.
A general note: In flow cytometry, cells or beads pass a laser one at a time.

Data set [5] relates to TK6 cells. Description: In vitro micronucleus test by flow cytometry, with S9 mix. It counts as cell-based, human. The settings on record: 3 h + S9 mix, 23 h recovery, 75 and 100 µM. The procedure:
as §1, §2, §3
The exogenous metabolic activation system employed is a co-factor-supplemented post-mitochondrial fraction (S9 mix) prepared from the livers of rats treated with enzyme-inducing agent Aroclor 1254. The final concentration of S9 in the culture medium was 0.75%.
as §4

Data set [6] concerns DAT. More on the design: method as in PMID 27524685. The settings on record: monoamine uptake, rats' brain synaptosomes; cited from earlier work.
Data set [7] deals with NET. More on the design: method as in PMID 27524685. As to conditions: monoamine uptake, rats' brain synaptosomes; cited from earlier work.
The test system of data set [8] is SERT. More on the design: method as in PMID 27524685. The settings on record: monoamine uptake, rats' brain synaptosomes; cited from earlier work.
In data set [9] the test system is SERT. Also noted: method as in PMID 27524685. As to conditions: rats' brain synaptosomes; read-out: releasing activity on SERT EC50; cited from earlier work.
Data set [10] relates to TK6 cells. The data set is described as follows: Cytotoxicity analysis (Guava ViaCount, cell viability). As to conditions: 26 h, 25-100 µM.
The subject of data set [11] is mice. As to conditions: in mice; cited from earlier work.
The test system of data set [12] is rats. The settings on record: in rats; cited from earlier work.
Data set [13] has as its system dopamine transporter (DAT). Also noted: method as in PMID 25624004, PMID 27799294. As to conditions: reuptake inhibition, human embryonic kidney 293 cells; cited from earlier work.
Data set [14] relates to norepinephrine transporter (NET). Also noted: method as in PMID 25624004, PMID 27799294. As to conditions: reuptake inhibition, human embryonic kidney 293 cells; cited from earlier work.
Data set [15] relates to serotonin transporter (SERT). Also noted: method as in PMID 25624004, PMID 27799294. As to conditions: human embryonic kidney 293 cells; cited from earlier work.
Data set [16] concerns dopamine (DAT), norepinephrine (NET), and serotonin (SERT) transporters. More on the design: method as in PMID 25624004, PMID 27799294. The settings on record: human embryonic kidney 293 cells; cited from earlier work.
On the set-up of data set [17]: method as in PMID 26505776, PMID 29963212, PMID 33379373. As to conditions: human urine of a drug abuser; cited from earlier work.
For data set [18], the system named is C2C12 myoblasts. More on the design: method as in PMID 30925718. As to conditions: 24 h, concentrations 10 to 20 times higher than in this paper; cited from earlier work.
Details of data set [19]: method as in PMID 23797910, PMID 26014283, PMID 27142261. The settings on record: in vitro studies; cited from earlier work.

SMILES strings stand for the structures. Read-outs that look alike come from different tables or passages of the source.

As for `COc1cc(CCN)c(OC)cc1Br` [2C-B], in data set [1], the mutagenic potential result is recorded as “proved to be mutagen”.
`COc1ccc(OC)c(CCN)c1` [2C-H]: the mutagenic potential result in data set [1] is on record as “proved to be mutagen”.
Consider `COc1cc(CCN)c(OC)cc1I` [2C-I], for which the mutagenic potential entry in [1] was “proved to be mutagen”.
`COc1cc(CCNCc2ccccc2OC)c(OC)cc1Br` [25B-NBOMe]: the mutagenic potential result in data set [1] is recorded as “proved to be mutagen”.
On to `CCCCCn1nc(C(=O)OC23CC4CC(CC(C4)C2)C3)c2ccccc21` [APINAC], for which, in data set [1], the “mutagenic capacity in terms of increasing the frequency of MNi” value is “mutagenic capacity”.
For the molecule `O=C(Oc1cccc2cccnc12)c1cn(CC2CCCCC2)c2ccccc12` [BB-22], the “mutagenic capacity in terms of increasing the frequency of MNi” value in data set [1] is recorded as “mutagenic capacity”.
For `CNC(COC)C(=O)c1ccc(C)cc1` (stereo not shown) [Mexedrone, 3-methoxy-2-(methylamino)-1-(4-methylphenyl)propan-1-one], the “Relative Population Doubling (RPD)” value in data set [2] (25 µM) is 97.0% ± 3.2; in [2] (35 µM), 92.0% ± 4.2; in data set [2] (50 µM) it was 88.4% ± 7.9; in data set [2] (75 µM), 95.2% ± 3.5; in [2] (100 µM) it was 90.1% ± 3.6. Besides, the “Cytostatic effect / RPD versus OECD threshold (55 ± 5%)” value in data set [2] was “do not induce any cytotoxic or cytostatic effects”. Moreover, the “Apoptosis fold increase versus negative control” value in data set [3] is reported as “never reached a doubling”. In addition, the “MNi frequency fold increase versus negative control” value in data set [4] is reported as “significant increase of the MNi frequency at both the concentrations tested”; in data set [5], “statistically significant increase at both concentrations tested”. Also, the figures for the IC50 in [6], in data set [7] and in data set [8] were around 6800 nM, around 8800 nM and around 5200 nM, respectively. Further, the EC50 – broadly, the concentration at which the effect is half-maximal – in [9] is 2500 nM. In [10], the “Cell viability / cytotoxic effect versus negative control and OECD threshold (55 ± 5%)” value is on record as “do not induce any cytotoxic or cytostatic effects”.
Take `O=C(NC12CC3CC(CC(C3)C1)C2)c1cn(CCCCCF)c2ccccc12` [STS-135]: the “mutagenic capacity in terms of increasing the frequency of MNi” value in [1] was “mutagenic capacity”.
Regarding `C[C@H](N)C(=O)c1ccccc1` [cathinone], the mutagenicity result in data set [11] is “mutagenicity demonstrated”.
Turning to `CNC(C)C(=O)c1ccc(C)cc1` (stereo not shown) [mephedrone, 4-methyl-N-methyl cathinone], in [12], the mutagenicity entry is listed as “mutagenicity demonstrated”.
Regarding `CCCCC(C(=O)c1ccccc1)N1CCCC1` (stereo not drawn) [α-PHP, alpha-pyrrolidinohexanophenone], the “Relative Population Doubling (RPD)” value was 88.3% ± 1.3 in data set [2] (25 µM); 94.4% ± 1.7 in data set [2] (35 µM); 96.8% ± 3.2 in [2] (50 µM); 85.2% ± 3.5 in data set [2] (75 µM); 85.9% ± 5.6 in [2] (100 µM). Moreover, in data set [2], the “Cytostatic effect / RPD versus OECD threshold (55 ± 5%)” value is “do not induce any cytotoxic or cytostatic effects”. Further, the “Apoptosis fold increase versus negative control” value in [3] was “never reached a doubling”. The entries for the “MNi frequency fold increase versus negative control” value in data set [4] and in data set [5] were “no statistically significant increase” and “statistically significant increase was observed only at the highest concentration tested”, respectively. The IC50 (as a rule, the concentration that inhibits the measured activity by half) in [13] is 20 nM; in data set [14], 40 nM; in data set [15] it was above 10000 nM. The neurotransmitters release result in data set [16] is “do not enhance neurotransmitters release”. For the same molecule, the “number of glucuronide conjugates identified” value in data set [17] is on record as 9. Moreover, the “number of phase I metabolites identified” value in data set [17] was 19. Further, the “Cell viability / cytotoxic effect versus negative control and OECD threshold (55 ± 5%)” value in data set [10] is on record as “do not induce any cytotoxic or cytostatic effects”.
`CCCC(C(=O)c1ccccc1)N1CCCC1` (stereo not drawn) [α-PVP, alpha-pyrrolidinopentiophenone]: the “Relative Population Doubling (RPD)” value is 91.5% ± 5.9 in [2] (25 µM); 88.4% ± 6.8 in data set [2] (35 µM); 88.7% ± 7.1 in data set [2] (50 µM); 89.9% ± 4.6 in data set [2] (75 µM); 87.6% ± 6.3 in [2] (100 µM). The “Cytostatic effect / RPD versus OECD threshold (55 ± 5%)” value in data set [2] is “do not induce any cytotoxic or cytostatic effects”. Besides, the “Apoptosis fold increase versus negative control” value in data set [3] is “never reached a doubling”. For the same molecule, the “MNi frequency fold increase versus negative control” value was “no statistically significant increase” in data set [4] and “significant increase in MNi frequency at both concentrations tested” in data set [5]. Moreover, the figures for the half-maximal inhibitory concentration (IC50) in [13], in data set [14] and in data set [15] were 40 nM, 20 nM and above 10000 nM, respectively. Besides, the neurotransmitters release entry in [16] is “do not enhance neurotransmitters release”. The mitochondrial superoxide production entry in data set [18] was “statistically significant increase in mitochondrial superoxide production”. Besides, the “number of phase I metabolites identified” value in data set [19] is on record as 6. Further, the “Cell viability / cytotoxic effect versus negative control and OECD threshold (55 ± 5%)” value in data set [10] is listed as “do not induce any cytotoxic or cytostatic effects”.

The values above are taken from publication PMC8231654, “Evaluation of Cytotoxic and Mutagenic Effects of the Synthetic Cathinones Mexedrone, α-PVP and α-PHP” (International Journal of Molecular Sciences, 2021).
